Tests used:
[1] = test system: NIRV mutants E119V, R292K and N294S; settings: cited from earlier work
[2] = test system: influenza A(H3N2) infection with pneumonia; settings: human, in vivo

SMILES: CCOC(=O)C1=C[C@@H](OC(CC)CC)[C@H](NC(C)=O)[C@@H](N)C1 [Oseltamivir, ethyl (3R,4R,5S)-5-amino-4-acetamido-3-(pentan-3-yloxy)-cyclohex-1-ene-1-carboxylate]
- increase of the 50% inhibitory concentration (IC50) by NIRV mutants [1]: > 100 fold
- Admission to ICU - (%) [2]: (2.7) %
- Admission to ICU - no. [2]: 3 no.
- Complications: Nosocomial infection - (%) [2]: (5.5) %
- Complications: Nosocomial infection - no. [2]: 6 no.
- Complications: Ventilator associated pneumonia - (%) [2]: (0.9) %
- Complications: Ventilator associated pneumonia - no. [2]: 1 no.
- Length of hospitalization (median; IQR) [2]: 3
- Mortality 90-day - (%) [2]: (10) %
- Mortality 90-day - no. [2]: 11 no.
- Readmission ≤30 days from discharge - (%) [2]: (17.3) %
- Readmission ≤30 days from discharge - no. [2]: 19 no.
